{
  "source": "patent US6087375A",
  "about": "“Methods of treating or preventing thromboses” (priority 1999, dated 2000)",
  "key": {"[1]": {"test_system": "thrombin", "assay": "Sandwich ELISA for thrombin binding of conjugated proteins (anti-thrombin detection)", "description": "(§1) The plates were incubated at room temperature for 30 minutes and washed as above.\nas §1\nNext, 100 μl/well of ABC-HRP (Vector, catalog no. PK4000) was added, each component diluted 1:500 in PBS, pH 7.4, with 0.1% TWEEN 20 and incubated 30 minutes at room temperature prior to use."}, "[2]": {"test_system": "human platelets (thrombin-induced aggregation)", "assay": "Thrombin-induced platelet aggregation assay", "assay_type": "cell-based", "description": "The conjugate was prepared according to the following protocol. A 15 μM solution of RSA in PBS was reacted with 200 μM argatroban-C6 NHS ester for 1 hour at room temperature. Sham samples consist of the RSA incubated for the same length of time at RT in 2% DMSO in PBS. Each of the samples was then concentrated to a final volume of 1.5 mL using Amicon Centricon 30 filtration/concentration devices. The concentrated samples were then desalted on Pierce's 5 ML Kwiksep excellulose plastic desalting columns. The excluded volumes containing RSA or argatroban-C6-RSA were then subjected to BCA microprotein estimation and lyophilization. In addition, these samples were analyzed by LC/MS, sandwich ELISA assays (described above) to measure thrombin binding and immunoblotting.\nPlatelets were purified from freshly drawn human blood diluted with the anticoagulant buffer ACD (9 mls of blood to 1 mL of buffer). The blood was centrifuged for 25 min at 200×g. The platelet-rich plasma (PRP) was recovered with a plastic pipette. The PRP was centrifuged for 15 min at 3,000×g in v-shaped plastic tubes. The supernatant, called platelet-poor plasma (PPP), was then removed and saved, and the platelets were resuspended in buffer A1 (35 mM citric acid, 103 mM NaCl, 5 mM each of glucose and KCl, 2 mM CaCl2, 1 mM […], 3.5 mg/mL BSA, 0.1 μM PGE1 and 0.3 U/mL of apyrase at pH 6.5). The resuspended platelets were washed 2 times with buffer A1. After the last wash, the platelets were resuspended in buffer B1 (137 mM NaCl, 2.6 mM KCL 12 mM NaHCO3, 0.3 mM NaH2 PO4, 3 mM CaCl2, 1 mM MgCl2, 5 mM glucose, 3.5 mg/mL BSA and […] apyrase at pH 7.4) at a density of 3×10^5 /μL. The platelets were maintained at room temperature until ready for use.\nVarious parameters relevant to platelet aggregation were obtained on a four channel aggregometer manufactured by AFFI BIO. In brief, the reaction chambers are warmed to 37° C. and are agitated at a rate of 1,200 rpm. Light is passed through the reaction chambers, with 300 μL of buffer B1 used to set the 100% transmittance level for each chamber. From a series of standardization experiments, it was determined that 0.5 U/mL of human thrombin (Sigma) is an optimal aggregating concentration of thrombin and is used to set. the 0% transmittance for the instrument. Standard conditions for the assay involve incubating 250 μL of the platelet suspension with or without 50 μL of inhibitor diluted in buffer in the reaction chambers for 60 seconds at 37° C. The value of transmittance is now set as 0%. After this measurement, thrombin is added to the reaction chambers (20 μl) and transmittance is measured for the next 6 minutes. Samples were performed in triplicate."}},
  "data": [
    {"substance": "RSA-argatroban-C6 conjugate: rabbit serum albumin covalently bound by argatroban-C6 NHS ester molecules", "values": [
      {"measurement": "absolute ELISA signal", "setting": "[1]; RSA conjugate versus HSA conjugate", "value": "the absolute signal is lower than that obtained with HSA"},
      {"measurement": "concentration at which a significant signal above background was detected", "setting": "[1]; RSA conjugate, FIG. 3", "value": "approximately 30 ng/ml"},
      {"measurement": "IC50 (estimated concentration which inhibits 50% of the aggregation)", "setting": "[2]; 0.5 U/mL human thrombin, 37° C., conjugate: average of 10 argatrobans/RSA used", "value": "4.5 to 7.5", "unit": "µM"},
      {"measurement": "delay in thrombin-induced platelet aggregation", "setting": "[2]; FIG. 11, versus sham-treated RSA", "value": "clearly delayed platelet aggregation"}
    ]}
  ]
}
